Assay results: US20180353613A1, “ANIONIC NANOPARTICLES FOR USE IN THE DELIVERY OF ANIONIC SMALL MOLECULE DRUGS” (B.G. NEGEV TECHNOLOGIES AND APPLICATIONS LTD, priority 2015, published 2018)
Converted amounts (≈) assume the structure as drawn.

What was measured:
[1] = test system: NAR cells; assay: Cellular uptake of DOX by ImageStreamX imaging flow cytometry; assay type: cell-based, human; details: 5.8 μg/ml DOX
Method: (§1) Imaging experiments using an imaging flow cytometer (Amnis ImageStreamX, ISX) were performed to quantitatively evaluate the cellular uptake of DOX. Cells were seeded in 6-well culture plates at a cell density of 300,000 cells per well. Twenty-four hours post-seeding, the cells were incubated for 4 h with Free DOX or AlgS-Ca^2+-DOX anionic NPs (5.8 μg/ml DOX, 5 mM Ca^2+, 0.5 μg/ml AlgS), and then medium was replaced to fresh medium for 24 h. For ISX analysis, the cells were harvested (at 4 or 24 h after DOX NP addition) by trypsinization followed by centrifugation at 300 g for 5 min. The cell pellet was resuspended in FACS buffer (PBS containing 2% FBS, v/v) and cells were analyzed using ImageStreamX Mark II (Amnis, Seattle, Wash.). Cell acquisition and analysis were performed using IDEAS Application, version 6.0.

[2] = test system: MDA-MB-231 cells; assay: as above; assay type: cell-based, human; details: 5.8 μg/ml DOX
Method: as §1

[3] = test system: MDA-MB-231 cells; assay: In vivo antitumor activity in MDA-MB-231 tumor-bearing athymic nude mice; details: 4 mg/kg i.v., three weekly injections
Method: Female athymic nude mice (six weeks old, body weight=20-23 g) are inoculated to the right cranial trunk region with MDA-MB-231 cells/Matrigel™ 1:1 (v/v) suspension (3×10^6 cells/0.2 mL/animal). Treatment is commenced when tumor size is approximately 100-150 mm^3. Mice are treated intravenously (i.v.) with three weekly injections of 4 mg/kg ([…] 12 mg/kg) of DOX or DOX NPs in saline. NPs were prepared as described above using the following stock solutions: 2 mg/ml DOX, 1M CaCl2, 50 μg/ml AlgS. Prior to injection: DOX (0.5 mg/ml), or DOX NPs were diluted 1:1.5 in saline. Tumor progression is monitored twice a week by caliper measurement and calculated using the formula: Volume=(width)^2×length/2. Mice are observed daily, and body weight is detected as possible signs of toxicity. For histological analysis, mice are euthanized at the end of the treatments. Following excision, tumors are weighted, fixed in 4% formaldehyde, embedded in paraffin, and sectioned into 5-μm slices. Tissue samples are analyzed by H&E staining for histopathological changes, Ki67 staining for cell proliferation and TUNEL assay for apoptotic cell death.

[4] = test system: MDA-MB-231 human breast cancer cell line; assay: In vitro cytotoxicity of DOX NPs, PrestoBlue cell viability assay; assay type: cell-based; details: MDA-MB-231, 48 h
Method: MDA-MB-231 or DOX-resistant human ovary carcinoma cell line NAR cells were seeded in 48-well plates at a density of 10,000 cells per well. After 24 h, medium was replaced with medium containing DOX NPs or free DOX at various concentrations. After incubation for 4 h, the medium was replaced to drug-free culture medium. After 48 h incubation, cell viability was assessed using PrestoBlue cell viability assay, as described above.
Statistical analysis was performed with GraphPad Prism version 6.05 for Windows (GraphPad Software, San Diego, Calif.). All variables are expressed as mean±SEM. To test the hypothesis that changes in DLS and potential measurements varied over time among the experimental groups, a general linear 2-way repeated-measures (RM) ANOVA model was used. The model included the effects of treatment, time, and treatment-by-time interaction, with Sidak's multiple comparisons test. Viability data was fit using 4-parametric logistic regression curve, where applicable. IC50 values obtained from the intersection of regression line with 50% response. Differences between experimental groups as a function of drug concentration were evaluated by 2-way ANOVA, with Sidak's multiple comparisons test. P<0.05 was considered statistically significant.

[5] = test system: CT26 mouse colon carcinoma cells; assay: In vitro cytotoxicity of MTX complexes, PrestoBlue cell viability assay; assay type: cell-based; details: CT26, 48 h incubation
Method: CT26 mouse colon carcinoma cells or MDA-MB-231 human breast cancer cell line were seeded in 48-well plates at a density of 10,000 cells per well. After 24 h, medium was replaced with medium containing MTX nano-complexes or free MTX at various concentrations. After 48 h incubation, cell viability was assessed using PrestoBlue cell viability assay (Life Technologies, Carlsbad, Calif.). The assay is based on the live cell's ability to reduce resazurin (non-fluorescent) to resorufin (fluorescent). PrestoBlue working solution was prepared by dilution of PrestoBlue reagent 1:10 in cell culture medium. PrestoBlue working solution was added to the cells for 1 h at 37° C. and 5% CO2. Fluorescent intensity was measured using the Synergy Mx microplate reader (Biotek, Winooski, Vt.) at an excitation wavelength of 560 nm and emission wavelength of 590 nm. The percentage of cell viability was obtained after normalizing the data to untreated cells.
Statistical analysis was performed with GraphPad Prism version 6.05 for Windows (GraphPad Software, San Diego, Calif.). All variables are expressed as mean±SEM. […] Differences between experimental groups as a function of drug concentration were evaluated by 2-way ANOVA, with Sidak's multiple comparisons test. […]

`COc1cccc2c1C(=O)c1c(O)c3c(c(O)c1C2=O)C[C@@](O)(C(=O)CO)C[C@@H]3O[C@H]1C[C@H](N)[C@H](O)[C@H](C)O1.Cl` [Free DOX, Doxorubicin-HCl] was tested, and the “% positive cells (DOX-positive)” value ([1]; 4 h) was 71%, the “Mean Fluorescent intensity” value ([1]; 4 h) was 40932 and the “% positive cells (DOX-positive)” value ([1]; 4 h, listed as free DOX) was ~70%. The “% positive cells (DOX-positive)” value ([1]; 24 h) was 13%, the “Mean Fluorescent intensity” value ([1]; 24 h) was 15108 and the “% positive cells (DOX-positive)” value ([2]; MDA-MB-231, 4 h) was 90%. For the same molecule, the “Mean Fluorescent intensity” value ([2]; MDA-MB-231, 4 h) was 59061, the “% positive cells (DOX-positive)” value ([2]; MDA-MB-231, 24 h) was 72% and the “Mean Fluorescent intensity” value ([2]; MDA-MB-231, 24 h) was 41944. The “tumor size compared to controls” value [3] was “reduced”.
For `CN(Cc1cnc2nc(N)nc(N)c2n1)c1ccc(C(=O)N[C@@H](CCC(=O)O)C(=O)O)cc1` [MTX, Methotrexate], the IC50 [4] was 1.27 µg/mL (≈ 2.79 µM) and the IC50 [5] was 0.00696 µg/mL.
